Experiments:
Type in all cases: in vivo
[1] = test system: Beet Armyworm (Spodoptera exigua, LAPHEG); test: Bioassay on Beet Armyworm (BAW), 128-well diet tray assay; conditions: Species BAW (Beet Armyworm), read-out: BAW (Biological Results, rating)
Procedure, shortened: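 Percent mortality, averaged across eight replicate wells, was scored after five to seven days at 25° C. under a 14:10 light-dark cycle. Each well's diet carried 50 μg/cm^2 of the dried test molecule and held one to five second instar larvae.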

[2] = test system: Cabbage Looper (Trichoplusia ni, TRIPNI); test: Bioassay on Cabbage Looper (CL), 128-well diet tray assay; conditions: Trichoplusia ni; Species CL (Cabbage Looper); read-out: CL (Biological Results, rating)
Procedure, shortened: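 Test molecule is dissolved in 90:10 acetone-water and applied at 50 μg/cm^2 onto artificial diet, then dried. One to five second-instar larvae go into each of eight wells. Trays, sealed but vented, stay at 25° C., 14:10 light-dark, five to seven days, after which mortality is averaged.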

[3] = test system: Yellow Fever Mosquito (Aedes aegypti, AEDSAE); test: Bioassay on Yellow Fever Mosquito (YFM), 96-well plate larval assay; conditions: Species YFM (Yellow Fever Mosquito)
Procedure, shortened: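 Compound stocks at 4000 ppm in DMSO were diluted with 90:10 water/acetone, and 15 μL aliquots were dispensed into six replicate plates. About 1-day-old larvae in liver-powder water were added per well. Plates were covered and held at room temperature for 3 days before each well was scored for mortality.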

| Structure (SMILES) | pest or weed control at 50 µg/cm2 [1] | pest or weed control at 50 µg/cm2 [2] | YFM (Biological Results, rating) [3] |
| --- | --- | --- | --- |
| Cc1cc(N)ccc1NC(=O)c1cc(NC(=O)[C@H]2[C@H](c3ccc(F)c(Cl)c3)C2(Cl)Cl)ccc1Cl (relative stereo) [F228, trans-N-(4-Amino-2-methylphenyl)-2-chloro-5-(2,2-dichloro-3-(3-chloro-4-fluorophenyl)cyclopropane-1-carboxamido)benzamide] | 50 to 100% | 50 to 100% | A (80-100) |
| N#Cc1cc([N+](=O)[O-])ccc1NC(=O)c1cc(NC(=O)[C@H]2[C@H](c3cc(Cl)cc(Cl)c3)C2(Cl)Cl)ccc1Cl (relative stereo) [F229, trans-2-chloro-N-(2-cyano-4-nitrophenyl)-5-(2,2-dichloro-3-(3,5-dichlorophenyl)cyclopropane-1-carboxamido)benzamide] | 50 to 100% | 50 to 100% | A (80-100) |
| Cc1ccc(C#N)c(NC(=O)c2cc(NC(=O)[C@H]3[C@H](c4cc(Cl)cc(Cl)c4)C3(Cl)Cl)ccc2Cl)c1 (relative stereo) [F230, 2-Chloro-N-(2-cyano-5-methylphenyl)-5-(trans-2,2-dichloro-3-(3,5-dichlorophenyl)cyclopropane-1-carboxamido)benzamide] | 50 to 100% | 50 to 100% | A (80-100) |
| Cc1ccc(NC(=O)c2cc(NC(=O)[C@H]3[C@H](c4cc(Cl)cc(Cl)c4)C3(Cl)Cl)ccc2Cl)c([N+](=O)[O-])c1 (relative stereo) [F231, 2-Chloro-5-(trans-2,2-dichloro-3-(3,5-dichlorophenyl)cyclopropane-1-carboxamido)-N-(4-methyl-2-nitrophenyl)benzamide] | 50 to 100% | 50 to 100% | A (80-100) |
| N#Cc1cc(C(F)(F)F)ccc1NC(=O)c1cc(NC(=O)[C@H]2[C@H](c3cc(Cl)cc(Cl)c3)C2(Cl)Cl)ccc1Cl (relative stereo) [F232, 2-Chloro-N-(2-cyano-4-(trifluoromethyl)phenyl)-5-(trans-2,2-dichloro-3-(3,5-dichlorophenyl)cyclopropane-1-carboxamido)benzamide] | 50 to 100% | 50 to 100% | A (80-100) |
| N#Cc1ccc(NC(=O)c2cc(NC(=O)[C@H]3[C@H](c4cc(Cl)cc(Cl)c4)C3(Cl)Cl)ccc2Cl)cc1F (relative stereo) [F233, 2-Chloro-N-(4-cyano-3-fluorophenyl)-5-(trans-2,2-dichloro-3-(3,5-dichlorophenyl)cyclopropane-1-carboxamido)benzamide] | 50 to 100% | 50 to 100% | A (80-100) |
| COc1cc(NC(=O)c2cc(NC(=O)[C@H]3[C@H](c4cc(Cl)cc(Cl)c4)C3(Cl)Cl)ccc2Cl)ccc1C#N (relative stereo) [F234, 2-Chloro-N-(4-cyano-3-methoxyphenyl)-5-(trans-2,2-dichloro-3-(3,5-dichlorophenyl)cyclopropane-1-carboxamido)benzamide] | 50 to 100% | 50 to 100% | A (80-100) |
| N#Cc1ccc(NC(=O)c2cc(NC(=O)[C@H]3[C@H](c4cc(Cl)cc(Cl)c4)C3(Cl)Cl)ccc2Cl)cc1C(F)(F)F (relative stereo) [F235, 2-Chloro-N-(4-cyano-3-(trifluoromethyl)phenyl)-5-(trans-2,2-dichloro-3-(3,5-dichlorophenyl)cyclopropane-1-carboxamido)benzamide] | 50 to 100% | 50 to 100% | A (80-100) |
| N#Cc1cc(N)ccc1NC(=O)c1cc(NC(=O)[C@H]2[C@H](c3cc(Cl)cc(Cl)c3)C2(Cl)Cl)ccc1Cl (relative stereo) [F236, trans-N-(4-amino-2-cyanophenyl)-2-chloro-5-(2,2-dichloro-3-(3,5-dichlorophenyl)cyclopropane-1-carboxamido)benzamide] | 50 to 100% | 50 to 100% | A (80-100) |
| CNc1ccc(NC(=O)c2cc(NC(=O)[C@H]3[C@H](c4cc(Cl)cc(Cl)c4)C3(Cl)Cl)ccc2Cl)c(C#N)c1 (relative stereo) [F237, trans-2-chloro-N-(2-cyano-4-(methylamino)phenyl)-5-(2,2-dichloro-3-(3,5-dichlorophenyl)cyclopropane-1-carboxamido)benzamide] | 50 to 100% | 50 to 100% | A (80-100) |
| Nc1cc(NC(=O)c2cc(NC(=O)[C@H]3[C@H](c4cc(Cl)cc(Cl)c4)C3(Cl)Cl)ccc2Cl)ccc1F (relative stereo) [F238, trans-N-(3-Amino-4-fluorophenyl)-2-chloro-5-(2,2-dichloro-3-(3,5-dichlorophenyl)cyclopropane-1-carboxamido)benzamide] | 50 to 100% | 50 to 100% | A (80-100) |
| CNc1cc(NC(=O)c2cc(NC(=O)[C@H]3[C@H](c4cc(Cl)cc(Cl)c4)C3(Cl)Cl)ccc2Cl)ccc1F (relative stereo) [F239, trans-2-Chloro-5-(2,2-dichloro-3-(3,5-dichlorophenyl)cyclopropane-1-carboxamido)-N-(4-fluoro-3-(methylamino)phenyl)benzamide] | 50 to 100% | 50 to 100% | A (80-100) |
| O=C(Nc1cccc(F)n1)c1cc(NC(=O)[C@H]2[C@H](c3cc(Cl)cc(Cl)c3)C2(Cl)Cl)ccc1Cl (relative stereo) [F240, trans-2-Chloro-5-(2,2-dichloro-3-(3,5-dichlorophenyl)cyclopropane-1-carboxamido)-N-(6-fluoropyridin-2-yl)benzamide] | 50 to 100% | 50 to 100% | A (80-100) |
| O=C(Nc1ncc(F)cc1F)c1cc(NC(=O)[C@H]2[C@H](c3cc(Cl)cc(Cl)c3)C2(Cl)Cl)ccc1Cl (relative stereo) [F241, trans-2-Chloro-5-(2,2-dichloro-3-(3,5-dichlorophenyl)cyclopropane-1-carboxamido)-N-(3,5-difluoropyridin-2-yl)benzamide] | 50 to 100% | 50 to 100% | A (80-100) |
| Cc1cc(F)cnc1NC(=O)c1cc(NC(=O)[C@H]2[C@H](c3cc(Cl)cc(Cl)c3)C2(Cl)Cl)ccc1Cl (relative stereo) [F242, trans-2-Chloro-5-(2,2-dichloro-3-(3,5-dichlorophenyl)cyclopropane-1-carboxamido)-N-(5-fluoro-3-methylpyridin-2-yl)benzamide] | 50 to 100% | 50 to 100% | A (80-100) |
| CN(C(=O)c1cc(NC(=O)[C@H]2[C@H](c3cc(Cl)cc(Cl)c3)C2(Cl)Cl)ccc1Cl)c1ccc(F)cc1C#N (relative stereo) [F243, trans-2-Chloro-N-(2-cyano-4-fluorophenyl)-5-(2,2-dichloro-3-(3,5-dichlorophenyl)cyclopropane-1-carboxamido)-N-methylbenzamide] | 50 to 100% | 50 to 100% | A (80-100) |
| CN(C(=O)c1cc(NC(=O)[C@H]2[C@H](c3cc(Cl)c(Cl)c(Cl)c3)C2(Cl)Cl)ccc1Cl)c1ccc(F)cc1C#N (relative stereo) [F244, trans-2-Chloro-N-(2-cyano-4-fluorophenyl)-5-(2,2-dichloro-3-(3,4,5-trichlorophenyl)cyclopropane-1-carboxamido)-N-methylbenzamide] | 50 to 100% | 50 to 100% | A (80-100) |
| Nc1c(F)ccc(NC(=O)c2cc(NC(=O)[C@H]3[C@H](c4cc(Cl)cc(Cl)c4)C3(Cl)Cl)ccc2Cl)c1F (relative stereo) [F245, trans-N-(3-Amino-2,4-difluorophenyl)-2-chloro-5-(2,2-dichloro-3-(3,5-dichlorophenyl)cyclopropane-1-carboxamido)benzamide] | 50 to 100% | 50 to 100% | A (80-100) |
| O=C(Nc1ccccc1)c1cc(NC(=O)[C@H]2[C@H](c3cc(Cl)cc(Cl)c3)C2(Cl)Cl)cc(Cl)c1Cl (relative stereo) [F246, trans-2,3-Dichloro-5-(2,2-dichloro-3-(3,5-dichlorophenyl)cyclopropane-1-carboxamido)-N-phenylbenzamide] | 50 to 100% | 50 to 100% | A (80-100) |
| O=C(Nc1ccc(F)cc1F)c1cc(NC(=O)[C@H]2[C@H](c3cc(Cl)cc(Cl)c3)C2(Cl)Cl)cc(Cl)c1Cl (relative stereo) [F247, trans-2,3-Dichloro-5-(2,2-dichloro-3-(3,5-dichlorophenyl)cyclopropane-1-carboxamido)-N-(2,4-difluorophenyl)benzamide] | 50 to 100% | 50 to 100% | A (80-100) |
| CC(=O)Nc1ccc(NC(=O)c2cc(NC(=O)[C@H]3[C@H](c4cc(Cl)cc(Cl)c4)C3(Cl)Cl)cc(Cl)c2Cl)cc1 (relative stereo) [F248, trans-N-(4-Acetamidophenyl)-2,3-dichloro-5-(2,2-dichloro-3-(3,5-dichlorophenyl)cyclopropane-1-carboxamido)benzamide] | 50 to 100% | 50 to 100% | A (80-100) |

From patent publication US10219516B2, “Molecules having pesticidal utility, and intermediates, compositions, and processes, related thereto” (priority 2015, dated 2019)
